Consider three substances from patent publication US7915050B2, “Regulatory genes for plant differentiation and growth, and use of the same” (National University Corporation Nagoya University, priority 2005, dated 2011).

Where two headings read alike, the source gives them in different places.

The target in one experiment is T1, AtGID1b (Arabidopsis thaliana, UniProt Q9LYC1).
T1 construct: made in house; host or cells: E. coli
T1 sequence (Q9LYC1 1-358): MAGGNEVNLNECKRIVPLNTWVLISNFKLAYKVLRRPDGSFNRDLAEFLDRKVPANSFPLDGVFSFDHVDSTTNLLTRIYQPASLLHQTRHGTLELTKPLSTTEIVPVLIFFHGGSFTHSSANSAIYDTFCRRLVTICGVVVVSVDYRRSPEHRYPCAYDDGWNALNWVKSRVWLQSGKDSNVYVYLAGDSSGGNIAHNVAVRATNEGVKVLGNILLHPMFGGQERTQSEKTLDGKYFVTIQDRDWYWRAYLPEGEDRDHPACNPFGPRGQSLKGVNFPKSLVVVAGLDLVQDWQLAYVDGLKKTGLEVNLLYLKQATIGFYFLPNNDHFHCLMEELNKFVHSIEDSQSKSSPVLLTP
The experiment can be described thus: Competitive ability of GA in AtGID1-GA binding (AtGID1b). As to conditions: for IC50: tracer 15 nM, mean of at least two measurements. The method, then:
(§1) In the gibberellin-binding assay, [1,2,16,17-^3H4]16,17-dihydro-GA4 was used as a labeled GA4. In vitro GA-binding assays were carried out using previous methods with some modifications (Nakajima, M. et al., Biochem. Biophys. Res. Comm. 241, 782-786 (1997)). The purified recombinant GID1 protein (400 pmol) was dissolved in 300 μl of binding buffer [20 mM Tris-HCl (pH 7.6), 5 mM 2-mercaptoethanol, and 0.1 M NaCl], and incubated with 100 μl of ^3H4-16,17-dihydroGA4 (6 pmol) for two hours at 25° C., either in the absence of non-labeled GA4 (total binding) or in the presence of 833-fold excess non-labeled GA4 (total non-specific binding). Then, 0.1 ml of the reaction mixture was loaded onto a NAP-5 column (Amersham Biosciences, Piscataway, N.J.). The eluate of the binding buffer (0.6 ml) was discarded, the subsequent eluate (0.2 ml) was collected, and the radioactivity was measured. The specific binding activity, reflecting the number of displaceable GA binding sites, was calculated by subtracting the amount of nonspecific binding from the amount of total binding. The same as above can also be carried out for other GAs.
(§2) Specifically, the coding region of the AtGID1 gene was amplified by PCR using specific primers designed based on the full-length cDNA sequence of the AtGID1 gene and having appropriate restriction sites at each end. After confirmation by sequence analysis, each cDNA fragment was ligated into pET32a vector (Novagen/Merck Biosciences, Madison, Wis., USA) or pGEX-4T-2 vector (Amersham Biosciences, Piscataway, N.J., USA; currently, a part of GE Healthcare). The production of recombinant proteins was confirmed by SDS-PAGE; vector cassettes were used as negative controls. GA binding assays were carried out similarly as described above using [1,2,16,17-^3H4]-16,17-dihydro-GA4 (4.55 TBq/mmol), which was custom-made by DuPont/NEN (Boston, Mass., USA). Non-labeled GA4 (1.25 mM) was used to measure non-specific binding. Saturation experiments for the kinetic analysis were carried out using ten concentrations of 16,17-dihydro-GA4 within the range of 25 to 1,500 nM. Competition assays were performed using [1,2,16,17-^3H4]-16,17-dihydro-GA4 at 15 nM and five concentrations of the non-labeled competitor. Recombinant RGA and GAI proteins were prepared using pET32a by a previously described method.
(§3) The ligand selectivity of each AtGID1 was examined by observing the competitive inhibition, by the addition of GA to the assay mixtures, of the binding between the recombinant proteins and tritiated 16,17-dihydro-GA4 (Table 2). The ligand selectivity was evaluated using the concentration of GA that inhibits 50% of the tracer (15 nM) binding (IC50 value).

A further experiment deals with T2, AtGID1c (Arabidopsis thaliana, UniProt Q940G6).
T2 construct: made in house; host or cells: E. coli
T2 sequence (Q940G6 1-344): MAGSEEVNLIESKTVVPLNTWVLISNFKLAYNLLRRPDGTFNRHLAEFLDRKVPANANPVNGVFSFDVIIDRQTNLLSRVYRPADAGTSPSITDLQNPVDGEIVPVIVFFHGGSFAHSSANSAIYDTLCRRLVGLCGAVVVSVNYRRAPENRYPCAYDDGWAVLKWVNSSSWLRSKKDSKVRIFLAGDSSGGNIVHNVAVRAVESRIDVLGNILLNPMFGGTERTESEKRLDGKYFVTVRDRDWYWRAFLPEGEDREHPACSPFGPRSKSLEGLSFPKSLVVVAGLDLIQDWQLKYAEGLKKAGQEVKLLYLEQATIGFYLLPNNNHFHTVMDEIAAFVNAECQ
The experiment can be described thus: Competitive ability of GA in AtGID1-GA binding (AtGID1c). As to conditions: for IC50: tracer 15 nM, mean of at least two measurements. The method, then: as §1, §2, §3

For experiment [1], the target named is T3, GID1 (Oryza sativa subsp. japonica, UniProt Q6L545).
T3 construct: GST (tag of vector pGEX-4T) (N); made in house
The experiment can be described thus: Competition of various GAs in the binding of the 3H-GA4 derivative to GID1 protein. Further details: species or system rice. As to conditions: for IC50: competition with tritiated GA4 derivative for binding to recombinant GID1, read-out: IC50 (concentration required for 50% inhibition); for Rel % (relative value): relative competition, GA4 given as 100. The method, then:
as §1
Thus, it was postulated that, like GID2, GID1 is involved in the degradation of SLR1, or that GID1 functions upstream of SLR1 in GA signaling. […] Based on this phenotypic characteristic of gid1, it was predicted that GID1 was involved in GA perception. To verify this possibility, the interactions between GID1 and radioisotope-labeled GA was directly examined using non-equilibrium gel filtration (Nakajima, M. et al., Biochem. Biophys. Res. Comm. 241, 782-786 (1997)). […] Next, ligand specificity of GID1 was tested by using competition between the tritiated GA4 derivative and various GAs. The concentration of each GA that is required for a 50% inhibition (IC50) of the binding of the tritiated GA4 derivative to GID1 is shown in Table 1. […] The IC50 value for each of these GAs was well consistent with their physiological activity.

A further experiment has as its target T4, AtGID1a (Arabidopsis thaliana, UniProt Q9MAA7).
T4 construct: made in house; host or cells: E. coli
T4 sequence (Q9MAA7 1-345): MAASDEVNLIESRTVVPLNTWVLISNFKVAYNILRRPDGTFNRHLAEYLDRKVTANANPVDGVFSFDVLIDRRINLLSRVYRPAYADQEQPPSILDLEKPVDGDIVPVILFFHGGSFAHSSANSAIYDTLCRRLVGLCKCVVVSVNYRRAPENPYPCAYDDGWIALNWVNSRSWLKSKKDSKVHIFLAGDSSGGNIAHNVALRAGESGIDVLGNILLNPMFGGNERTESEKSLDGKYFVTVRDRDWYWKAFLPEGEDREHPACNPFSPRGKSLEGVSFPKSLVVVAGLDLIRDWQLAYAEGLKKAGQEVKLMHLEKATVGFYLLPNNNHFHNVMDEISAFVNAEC
The experiment can be described thus: Competitive ability of GA in AtGID1-GA binding (AtGID1a). As to conditions: for IC50: tracer 15 nM, mean of at least two measurements. The method, then:
as §1, §2, §3

Experiment [2] deals with T3, GID1. The experiment can be described thus: Saturation/Scatchard and association/dissociation analysis of GA binding to recombinant GID1. Also noted: species or system rice. As to the method: Panel a) depicts the saturability for the GA binding of GID1. […] Bar represents the standard deviation (n=3). Panel b) depicts the results of a Scatchard plot for the data of binding shown in a. The Kd value was calculated (correlation coefficient R^2=0.96) from t three independent experimental results. Panel c) depicts the ^3H-GA association/dissociation rate to GID1. […] Bar represents the standard deviation (n=3). […] Upper panel, none of three recombinant proteins of mutant GID1s (GID1-1, 1-2, and 1-3) corresponding to the three gid1 alleles interacted with GA4. […] Bar represents the standard deviation (n=3). Bottom panel, Coomassie brilliant blue stain of the recombinant proteins used in this experiment. Dot represents GID or tag proteins in the SDS-PAGE profile. In this experiment, almost equal amounts of proteins were used for each (80 pmol). Panel e) depicts the gross morphologies of a GID1-overexpressing plant (Actin1 promoter-GID1, right) and wild type plant (control, left) three months after seeding. Bar=50 cm. f) dose-dependent GA response in the elongation of the second leaf sheath of GID1overexpressing plant (closed triangle) and wild type (closed circle). Bar represents the standard deviation (n=5).
In the gibberellin-binding assay, [1,2,16,17-^3H4]16,17-dihydro-GA4 was used as a labeled GA4. In vitro GA-binding assays were carried out using previous methods with some modifications (Nakajima, M. et al., Biochem. Biophys. Res. Comm. 241, 782-786 (1997)). […] The eluate of the binding buffer (0.6 ml) was discarded, the subsequent eluate (0.2 ml) was collected, and the radioactivity was measured. The specific binding activity, reflecting the number of displaceable GA binding sites, was calculated by subtracting the amount of nonspecific binding from the amount of total binding. […]
Next, the kinetics of the binding of GID1 to GA was analyzed. To calculate the Kd value of GID1 to GA, the saturability of GA binding was measured using various concentrations of GA4 derivative (FIG. 4a). […]

T3 sequence (Q6L545 whole entry): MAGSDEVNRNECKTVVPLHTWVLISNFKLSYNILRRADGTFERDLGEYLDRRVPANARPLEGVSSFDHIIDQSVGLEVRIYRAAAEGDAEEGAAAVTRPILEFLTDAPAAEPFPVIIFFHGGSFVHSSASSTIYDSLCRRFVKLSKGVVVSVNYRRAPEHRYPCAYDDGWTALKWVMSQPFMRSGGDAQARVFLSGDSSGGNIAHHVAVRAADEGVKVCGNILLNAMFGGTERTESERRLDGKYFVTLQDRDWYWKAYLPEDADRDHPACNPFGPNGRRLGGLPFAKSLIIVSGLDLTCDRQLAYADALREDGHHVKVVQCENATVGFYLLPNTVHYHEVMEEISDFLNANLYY

On to 3-epi-GA4, for which the “relative value, taking the value for GA4 as 100” value on AtGID1b, on AtGID1c and at AtGID1a was “(<0.1) %” in each case. Also, the IC50 at AtGID1b was 100 µM; at AtGID1c, over 300 µM; on GID1 [1], over 200 µM; on AtGID1a, over 300 µM. At GID1 [1], the “Rel % (relative value)” value is listed as “(<0.1) %”.

For “[1,2,16,17-^3H4]16,17-dihydro-GA4 [^3H4-16,17-dihydroGA4]”, the entries for the “half-time required for association/dissociation” value on GID1 [2] and on GID1 [2] (listed as GA4 derivative) were “within several minutes” and “several minutes or less”, respectively.

As to methyl ester of GA4 [GA4-Me], the “relative value, taking the value for GA4 as 100” value at AtGID1b was “(0.3) %”; at AtGID1c, “(0.3) %”; on AtGID1a, “(0.1) %”. Moreover, the IC50 on AtGID1b amounted to 9 µM; on AtGID1c, 90 µM; on GID1 [1] it was 30 µM; at AtGID1a it was 300 µM. In addition, the “Rel % (relative value)” value on GID1 [1] was “(0.6) %”.
